Results published in PMC9022229, “Induction of Paraptosis by Cyclometalated Iridium Complex-Peptide Hybrids and CGP37157 via a Mitochondrial Ca^2+ Overload Triggered by Membrane Fusion between Mitochondria and the Endoplasmic Reticulum” (Biochemistry, 2022).
Residues, ends and D or L forms follow the SMILES beside them. *: point of attachment. X1 = O=C(COc1ccc(-c2ccccn2)cc1)NCCCCCCCCN*

Key:
A549 cells = assay: MTT assay of A549 cells; assay type: cell-based, human; settings: 24 h, 10% FBS/DMEM, 37 °C, 5% CO2
Method: HeLa S3 and A549 cells (2.0 × 10^4 cells/well) were seeded on a 96-well plate (BD Falcon) in cell culture medium and incubated overnight at 37 °C under 5% CO2. Jurkat (2.0 × 10^4 cells/well), HeLa S3, and A549 cells were treated with 4 (0–25 μM) and CGP37157 (0–100 μM) for 1, 3, 6, 12, and 24 h at 37 °C under 5% CO2, after which a MTT solution in PBS (0.5%, 10 μL) was added to each well.
Figure S3. MTT assay of HeLa S3 cells (plain curves with filled circles) and A549 cells (dashed curves with filled squares) treated with CGP37157 (0–100 µM) in 10% FBS/MEM (HeLa S3 cells) and 10% FBS/DMEM (A549 cells) for 24 h at 37 °C under 5% CO 2.
Figure S4. MTT assay of Jurkat cells treated with inhibitors of programmed cell death; Z-VAD-fmk (an apoptosis inhibitor), necrostatin-1 (Nec-1: a necroptosis inhibitor), and 3-methyl adenine (3-MA, an autophagy inhibitor) in the presence of CGP37157 (100 µM, 12 h). Values are shown as the mean ± SD for three independent experiments. ** P < 0.01.
(also on this page, place not known: Cell viability (% control) CO2. 50 Cell viability (% control) 0300 00030 of)

Jurkat cells [1] = assay: TEM analysis of cytoplasmic vacuolization; assay type: cell-based
Method: The morphological changes in Jurkat cells induced by CGP37157 (Figure 3B) were similar to those induced by 4 (Figure 1B) and confirmed in detail by TEM (transmission electron microscopy). Jurkat cells were treated with CGP37157 (100 μM) for 12 h, prefixed with glutaraldehyde and postfixed with osmium tetroxide (OsO4), and included in Poly 812 resin. The resulting samples were sliced and then observed by TEM. […] Similar TEM images were reported with respect to paraptosis-inducing natural compounds by some research groups: (i) paraptosis in MDA-MB 435S cells,[17] HeLa cells,[18] and Jurkat cells (Figure 4d and in our previous publications)[56]−[58] induced by celastrol, (ii) paraptosis in HeLa cells induced by 8-p-hydroxybenzoyl tovarol,[23] and (iii) paraptosis in A2780 cells and SKOV-3 cells induced by morusin.[22] Therefore, we believe that Jurkat cells undergo vacuolization in the paraptotic processes induced by 4 and CGP37157, as well as celastrol.
In a 1.5 mL Eppendorf tube, Jurkat cells (3.0 × 10^6 cells) were incubated with 4 (5 μM for 3 h), CGP37157 (100 μM for 12 h), and celastrol (1 μM for 24 h) in 10% FBS/RPMI 1640 medium at 37 °C under 5% CO2. After centrifugation (2000 rpm, 3 min, 4 °C), the cells were washed twice with PBS, prefixed with glutaraldehyde (2.5%) at 4 °C for 40 min, and then washed twice with PBS. Osmium tetroxide (1%) was used for postfixation, and the solution was incubated at 4 °C for 30 min. The cells were washed with PBS, included in an agarose gel, and dehydrated by using 50–100% and anhydrous EtOH. The cells were embedded into Poly 812 resin (Nisshin EM Co. Ltd.) at 60 °C for 3 days. The resin was sliced with a glass knife (150 nm thickness) on an ultramicrotome (EM UC6, Leica), and the samples were stained with EM stainer (Nisshin EM Co. Ltd.) and observed on TEM instrument (H-7650, Hitachi) with electron irradiation at 100 kV.

mitofusin 1 (MFN1) = assay: Western blot analysis of MFN1 in Jurkat cells; assay type: cell-based; settings: for MFN1 band intensity relative to absence of compound: Figure S8B, 12 h
Method: In a 1.5 mL Eppendorf tube, Jurkat cells (1.0 × 10^6 cells) were incubated in the presence of 4 ([…]), CGP37157 (100 μM for 0–24 h or 0–100 μM for 12 h), and celastrol (0–10 μM for 24 h or 1 μM for 0–24 h) at 37 °C under 5% CO2. After the cells had been washed twice with PBS, the proteins were extracted by using RIPA buffer (Nacalai Tesque) and quantified using a Pierce BCA Protein Assay Kit (Thermo Scientific). Proteins (7.5 μg/well) for MFNs and DRP1 and proteins (5.0 μg/well) for GAPDH were used for sodium dodecyl sulfate–polyacrylamide gel electrophoresis (SDS–PAGE) (7.5% for MFNs and DRP1 and 10% for GAPDH) (Bio-Rad). After SDS–PAGE, the proteins were transferred to a polyvinylidene fluoride membrane (Merck Millipore) by using a semi dry blotter (Bio-Rad). The membrane was blocked with Blocking One solution (Nacalai Tesque) for 30 min at room temperature. After being blocked, the membrane was washed three times with 1× TBST and treated with primary antibodies overnight (at a dilution of 1/1000 for MFNs and DRP1 or 1/2000 for GAPDH) in a signal enhancer HIKARI-solution A (Nacalai Tesque). The membrane was washed three times with 1× TBST and treated with the anti-mouse or anti-rabbit IgG HRP-conjugated secondary antibody (at a dilution of 1/4000 for MFNs and DRP1 or 1/10000 for GAPDH) in 1× TBST for 60 min at room temperature. The protein signal was spotted with a Chemi-Lumi One Ultra solution (Nacalai Tesque) using the ChemiDoc MP system (Bio-Rad). […]

Jurkat cells [2] = tested on: Jurkat cells; design: method as in PMID 25875312, PMID 28032992, doi:10.1002/ejic.201700846, PMID 30154833, PMID 30177492; settings: Chart 1, previously reported; read-out: EC50 against Jurkat cells; cited from earlier work
Jurkat cells [3] = assay: Intracellular uptake in Jurkat cells by ICP-MS; assay type: cell-based; settings: 5 μM, 37 °C, 5% CO2, ICP-MS, n = 3
Method: The time-dependent intracellular uptake of 4 into Jurkat cells was measured by ICP-MS (inductively coupled plasma-mass spectrometry). Jurkat cells were treated with 4 (5 μM) for 30 min, 1 h, 2 h, and 3 h at 37 °C under 5% CO2, washed three times with PBS, and lysed with nitric acid at 4 °C overnight. The lysates were diluted with H2O, and the samples were analyzed by ICP-MS.
In a 1.5 mL Eppendorf tube, Jurkat cells (1.0 × 10^6 cells) were treated with 4 (5 μM) for 0–3 h at 37 °C under 5% CO2 (n = 3). After the cells had been washed three times with PBS, HNO3 (60%, 0.5 mL) was added to the cells and the resulting solutions were incubated overnight at 4 °C. After centrifugation (15000 rpm, 4 °C, 10 min), the supernatant was transferred to a 15 mL tube, diluted with H2O (4.5 mL), and filtered. The number of iridium atoms was measured by ICP-MS (NexION300S, PerkinElmer).

SMILES	EC50 (A549 cells)	Morphological change by TEM (Jurkat cells [1]; CGP37157 100 μM, 12 h)	Expression level of MFN1 (Figure 11B) (mitofusin 1 (MFN1); CGP37157 100 μM, 1–6 h)	MFN1 band intensity relative to absence of compound (mitofusin 1 (MFN1); CGP37157 10 µM)	MFN1 band intensity relative to absence of compound (mitofusin 1 (MFN1); CGP37157 20 µM)	MFN1 band intensity relative to absence of compound (mitofusin 1 (MFN1); CGP37157 50 µM)	MFN1 band intensity relative to absence of compound (mitofusin 1 (MFN1); CGP37157 80 µM)	MFN1 band intensity relative to absence of compound (mitofusin 1 (MFN1); CGP37157 100 µM)	EC50 (Jurkat cells [2])	Ir atom (intracellular amount) (Jurkat cells [3]; 30 min)	Ir atom (intracellular amount) (Jurkat cells [3]; 1 h)	Ir atom (intracellular amount) (Jurkat cells [3]; 2 h)	Ir atom (intracellular amount) (Jurkat cells [3]; 3 h)	Morphological change by TEM (Jurkat cells [1]; 4 at 5 μM, 3 h)
O=C1CSC(c2ccccc2Cl)c2cc(Cl)ccc2N1 (centres unmarked) [CGP37157]	81 µM	cytoplasmic vacuolization	weakly changed	1.1	1.1	0.92	0.80	0.63	–	–	–	–	–	–
NCCCC[C@H](NC(=O)[C@H](CCCCN)NC(=O)[C@@H](N)CCCCN)C(=O)NCC(=O)NCC(=O)NCCCCCCCCNC(=O)COc1ccc(-c2ccccn2)cc1 [compound 4] (H-KKKGG-X1)	–	–	–	–	–	–	–	–	1.5 µM	0.64 ± 0.01 fmol/cell	1.3 ± 0.1 fmol/cell	1.2 ± 0.1 fmol/cell	1.5 ± 0.4 fmol/cell	cytoplasmic vacuolization
